Test results from US11510917B2, “HIF-stabilization and prevention of hyperoxia-induced neonatal lung disease” (CORNELL UNIVERSITY, priority 2016, dated 2022).

What was measured:
HIF PHD = test: luc-ODD luciferase reporter, live imaging and organ lysates; format: in vivo, mouse
Procedure: Detection of luc-ODD luciferase reporter in vivo and in vitro. Live imaging of luciferase activity was performed using Bruker Xtreme small animal x-ray, fluorescence bioluminescence imaging system. Luc-ODD mouse pups at 12 days of age (P12) were divided into appropriate experimental groups identified by ear notches and treated according to the experimental design, i.e., various length of pharmacological treatment (0, 3, 9, 24 hrs), or route of administration (intraperitoneal vs subcutaneous for 3 hrs). […] Ten minutes later, pups (in groups of 2 to 4) were placed in an imaging chamber supplied with a heated pad and inhalation cones for oxygen/isofurane mixture. Ventral and dorsal bioluminescent images were collected for 30 sec followed by white light images taken at autoexposure time. Light and luminescent images where then superimposed and quantitatively analyzed using Bruker MI v7 software. Luciferase activity in mouse organs was detected as follows. […] Tissues were placed in Glo Lysis Buffer (Promega), homogenized with disposable plastic pestles fitted to 1.5 mL microtubes on ice and centrifuged at 20,000×g, 4° C., for 15 min. Protein concentrations of tissue extracts were determined using BCA Protein Assay (Thermo Sci), adjusted to 150 ug (retina), 300 ug (kidney, spleen, lung) or 600 ug (brain, liver) per assay reaction by diluting with Glo Lysis Buffer in a total volume of 100 uL and placed in the wells of white opaque 96-well plate. Diluted extracts were then brought to room temperature, mixed with equal volume (100 uL) of ready-to-use luciferase substrate Bright-Glo Luciferase Assay System (Promega) and luminescence was measured immediately by a luminometer/fluorimeter Victor X2 (PerkinElmer).

HIF-1α = test: Western blot of HIF-1α protein in mouse organs; format: in vivo
EPO = test: ELISA of serum EPO; format: in vivo, mouse
Hep3B cells = test: HIF-1α stabilization and EPO expression in cultured hepatoma cells; format: cell-based, human
[1] = tested on: neonatal mice chronically exposed to hyperoxia; test: Oxygen-induced lung injury, lung airspace analysis (chord length Lm); format: in vivo, mouse; details: for alveolar enlargement, lung histology: 80% O2, 200 mg/kg i.p. intermittent during oxygen supplementation (Example 3); for protection of alveolar size (Lm) against moderate hyperoxia: about 45% O2, 2- and 5-week time points
From the text: For this study we utilized a well-defined murine model of CLD using neonatal mice chronically exposed to hyperoxia for 2 weeks followed by normoxia for an additional 3. Timed pregnant mice were monitored hourly. Within hours of birth litters were pooled before being randomly redistributed to the newly delivered mothers. Experiments were begun on newborns at postnatal day 0. Half of the newborn pups were placed in a chamber designed to deliver variable oxygen concentrations (Biospherix Ltd) and set to 80% O2 (HO) and the other half remained in room air (RA) as age-matched controls. Mothers were rotated every 12 hours to prevent death from acute O2 toxicity. Neonatal CD1 mice also referred to as wild-type mice (Charles River), MCD mice (WBB6F1^−W/Wv) and their mast cell competent litter mates WBB6F1-^+/^+ (congenic controls (CC)) (Jackson Laboratories) were exposed to either HO or RA for 2 weeks and then kept in room air (FiO2 of 0.21) an additional 3 weeks for the 5-week time point. Some CD1 mice (HO and RA) were also maintained 18 weeks in room air for the 20-week time point. Survival and weight were monitored daily. All mice (CD1, MCD, and CC) used in this study were healthy at birth and survived until sacrificed. Unless specifically noted as CC or MCD, mouse experiments were performed with CD1 mice.
Oxygen-induced lung injury and lung airspace analysis. A well-defined murine model of CLD, a.k.a. bronchopulmonary dysplasia, using neonatal mice chronically exposed to hyperoxia followed by normoxia was used for our studies. Timed pregnant CD1 mice (Charles River) were monitored hourly. Within hours of birth litters were pooled before being randomly redistributed to the newly delivered mothers. Half of the newborn pups were immediately placed in a chamber designed to deliver variable oxygen concentrations (Biospherix) and set to 80%, 45% or 30% O2 (hyperoxia) and the other half remained in room air. Mothers were rotated every 12 hrs to prevent death from acute O2 toxicity. Newborn pups were exposed to either hyperoxia or room air for 2 weeks. […] Some animals were then kept in room air for an additional 3 weeks or 18 weeks before analysis. Lungs from mice were fixed at a constant inflation pressure of 25 cm H2O in 10% neutral buffered formalin followed by paraffin embedding. Sections (7 μm) were cut and slides of paraffinized tissue sections were deparaffinized, rehydrated, and washed in distilled water. Sections were stained with hematoxylin and eosin to visualize the structure of the lung. The direct method was used for the accurate estimation of the mean linear intercept length (Lm) (chord length) to assess the mean free distance in the alveoli. This method uses a set of random intercepts and calculates Lm from their frequency distribution and provides results on alveolar size distribution and alveolar surface area. […] On average 30-50 non-overlapping 1 mm^2 fields were analyzed for each lung section. Mean chord length of each alveolus (μm) was measured with the areas of approximately 4,000 individual alveoli/mouse measured in sections from room air mice and about 2,000 individual alveoli/mouse were analyzed in lung sections from hyperoxic mice.
The direct method was used for the accurate estimation of the mean linear intercept length (Lm) (chord length) to assess the mean free distance in the alveoli. […] On average 30-50 non-overlapping 1 mm^2fields were analyzed for each lung section and mean chord length of each alveolus (μm) was measured.

lung mast cells = test: Lung mast cell number after neonatal hyperoxia; format: in vivo, mouse; details: 10 mg/kg, 5-week time point
From the text: Lungs from mice (CD1, MCD and CC), not undergoing pulmonary function testing, were fixed at a constant inflation pressure of 25 cm H2O in 10% neutral buffered formalin followed by paraffin embedding. Slides with 7 μm sections were deparaffinized, rehydrated, and washed in distilled water. Some sections were stained with hematoxylin and eosin (H&E) to visualize the structure of the lung. Other sections were stained with an antibody (CC10) (Santa Cruz Biotechnology) (1:50 dilution) to detect club cells, a cell type specific to the airways. Analysis on the alveolar space deliberately avoided airways and blood vessels. For each animal, 5 lung sections were analyzed and quantified as cells per mm^2 of lung tissue. Mast cells were detected in fixed tissue using either the glycoprotein avidin, conjugated to the enzyme horseradish peroxidase (HRP) (Vector Laboratories) or toluidine blue, the classic metachromatic stain for mast cells. Conjugated avidin is a well-defined histochemical method for identifying rodent and human mast cells, which express chondroitin sulfate E proteoglycans and heparin proteoglycans, respectively, in the secretory granules, binding specifically to the proteoglycan granules. Non-specific staining of biotin or biotin-like molecules previously reported […]. Deparaffinized sections were exposed to avidin-HRP 1:500. […]

Mast cells = test: Mast cell protease (tryptase, chymase) abundance by Western blot; format: cell-based; details: high oxygen (80%)
From the text: FIG. 14. […] Mast cells express tryptase and chymase. […] N=4 separate blots, different samples. Aliquots of purified TA and HMC-1 exosomes were homogenized and the protein amounts determined by Lowry assay. Primary antibodies used were: mouse monoclonal TSG 101 (Santa Cruz sc-7964) at 1:500 dilution, mouse monoclonal Alix (Cell Signaling, 2171) at 1:1000 dilution, rabbit polyclonal CD63 (Santa Cruz, sc-15363) at 1:500 dilution, rabbit polyclonal chymase at a 1:2500 dilution (Abcam, 186417), mouse monoclonal mast cell tryptase (Abcam, ab2378) at 1:3000 dilution, rabbit polyclonal elastase (Abcam, ab68672) at 1:1000 dilution, mouse monoclonal mast cell CPA3 (Abcam, ab72575) at 1:500 dilution, and mouse monoclonal GAPDH (Cell Signaling, 14C10) and β-actin (Cell Signaling, 3700) at 1:100,000 dilution. GAPDH and β-actin were used as loading controls.

[2] = tested on: neonatal mice chronically exposed to hyperoxia; test: Pulmonary function test of lung compliance after neonatal hyperoxia; format: in vivo, mouse; details: 80% neonatal hyperoxia; intermittent treatment
Procedure: Pulmonary function tests (PFTs) were performed in 5- (CD1, MCD and CC) and 20-week old mice (CD1) post-neonatal HO or RA. Briefly, mice were anaesthetized with pentobarbital (100 mg/kg, intraperitoneal; American Pharmaceutical Partners), tracheostomized and mechanically ventilated at a rate of 150 breaths/min, a tidal volume of 10 ml/kg and positive end-expiratory pressure of 2-3 cm H2O using a computer-controlled animal ventilator (Sireq). The following perturbations were used to assess baseline respiratory mechanics and analyzed using Flexivent software (Sireq). Static lung compliance (Cst) was determined using the Salazar-Knowles equation applied to the plateau pressure measurements obtained between total lung capacity and functional residual capacity. Broadband forced oscillations were applied to determine tissue resistance (R) and Newtonian (airway) resistance (Rn) using a constant phase model. Mice used for measuring pulmonary function were not used for histological analyses.

[3] = kidney and liver, single i.p. injection

SMILES | duration of HIF PHD inhibition (HIF PHD; [3]) | half-life of HIF PHD inhibition (HIF PHD; [3]) [h] | organs with highest luminescence (HIF PHD; luc-ODD mouse, ventral and dorsal views, i.p. or s.c. injection) | luciferase activity over baseline (HIF PHD; tissue lysates, liver) [fold] | increase of HIF-1α protein (HIF-1α; liver and kidney) | increase of HIF-1α protein (HIF-1α; spleen, lung, brain, and retina) | time of maximal increase in serum erythropoietin (EPO) (EPO; after i.p. injection) [h] | dose of maximal effect, serum EPO as marker of HIF-1 activity (EPO; dose response in the mouse) [mg/kg bodyweight] | increase in serum EPO protein concentration (EPO; i.p. 10 mg/kg, P8 pups) [fold] | HIF-1α stabilization and expression of EPO mRNA and protein (Hep3B cells) | alveolar enlargement, lung histology [1] | alveolar size by chord length (Lm) ([1]; 80% O2 first 2 weeks then 3 weeks room air, 10 mg/kg s.c. intermittent, CD1 pups, 5-week time point, 10 mg/kg) | protection of alveolar size (Lm) against moderate hyperoxia ([1]; CD1 pups) | protection of alveolar size (Lm) against moderate hyperoxia ([1]; CD1 pups, listed as RXD) | lung mast cell increase (lung mast cells; moderate (45%) hyperoxia) | lung mast cell increase (lung mast cells; severe (80%) hyperoxia) | hyperoxia-induced tryptase and chymase abundance (Mast cells) | hyperoxia-induced tryptase and chymase abundance (Mast cells; listed as RXD) | lung compliance [2]
Cc1nc(C(=O)NCC(=O)O)c(O)c2ccc(Oc3ccccc3)cc12 [Roxadustat, N-[(4-hydroxy-1-methyl-7-phenoxyisoquinolin-3-yl)carbonyl]glycine] | at least 24 hours | 48 to 72 | liver and kidney | 6 | 5-10 fold | two-fold increase | 6 | 10 | 8 | can be recapitulated | reduced | statistically significant normalization in alveolar size | statistically significant normalization in alveolar size | protective | prevents the increase in mast cells | prevents the increase in mast cells | decreases | decreased | 
COC(=O)CNC(=O)C(=O)OC [DMOG, N-(2-Methoxy-2-oxaoacetyl)glycine methyl ester] |  |  |  |  |  |  |  |  |  |  | normalizes alveolar enlargement |  |  |  |  |  |  |  | maintains normal lung compliance
